Data on 16 sequences can be found in patent US7906484B2, “Complex for transferring an anionic substance into a cell” (Alnylam Pharmaceuticals, Inc., priority 2006, dated 2011).

No end group written: not given here.

For data set [1], the system named is E6AP mRNA in HCT116 cells. Put plainly: siRNA AD-8724 delivery into HCT116 cells, inhibition of E6AP mRNA expression by bDNA assay. It counts as cell-based, human. The protocol: All further experiments were carried out using HCT116 cells and inhibition of E6AP expression as readout.
HCT116-cells were obtained from the American Type Culture Collection (ATCC# CCL-247). They were cultured in McCoy's 5A medium (Biochrom AG, Berlin, Germany, Cat.# F1015) containing 10% fetal calf serum (FCS; Biochrom AG, Berlin, Germany, Cat.# S0115) and 2 mM L-Glutamin (Biochrom AG, Berlin, Germany, Cat.#: K0283) (standard growth medium). For incubation with peptide/siRNA, complexes, the medium was replaced by serum-free McCoy's 5A medium containing 2 mM L-Glutamin (serum free medium). After incubation with complexes for 4 h, McCoy's 5A medium containing 30% fetal calf serum and 2 mM L-Glutamin (triple FCS medium) was added to restore an overall 10% FCS in the medium.
The E6AP-specific siRNA denoted AD-8724 herein was used, having the following sequences: antisense strand: 5′-ucacauuccacguuaggugTsT-3′ (SEQ ID NO:51), sense strand 5′-caccuaacguggaaugugaTsT-3′; (SEQ ID NO:52; lower case letters: ribonucleotides; s: phosphorothioate backbone linkage). As a negative control, an siRNA specific for eGFP, denoted AD-5107 herein, was used, having the following sequences: antisense strand: 5′-aagucgugcugcuucauguggOMesuOMesc-3′ (SEQ ID NO:19), sense strand 5′-[…]-3′ (SEQ ID NO:18; lower case letters: ribonucleotides; subscript OMe: 2′-O-methyl-ribonucleotide; s: phosphorothioate backbone linkage). In addition to the non-specific control siRNA AD-5107, mock transfected cells treated with standard growth medium only were used as negative controls. As a positive control, AD-8724 was transfected into the cells using Lipofectamine2000™ (Invitrogen, Karlsruhe, Germany, Cat. No. 11668-019). As a further control, AD-5107 was transfected into cells using Lipofectamine2000™. All assays were performed in quadruplicates.
SiRNA/peptide complexes were prepared by mixing a solution of the siRNA in deionized water with a solution of the peptide in deionized water at the appropriate concentrations to give the desired ratio of siRNA/peptide at the desired concentration of the complex. The mixture was incubated at room temperature for 30 min and kept at 4° C. until use, and used within 24 h.
For transfections with siRNA/peptide complexes, 1.5×10^5 HCT116-cells per well in 150 μl standard growth medium were seeded into polystyrene 96 well plates and grown for 24 h at 37° C. in an atmosphere containing 5% CO2. The medium was removed by aspiration, and 90 μl serum-free medium and 10 μl of siRNA/peptide complex solution were added. Cells were incubated for 4 h at 37° C./5% CO2, 50 μl triple FCS medium were added, and the cells incubated for another 20 h under identical conditions. Subsequently, E6AP mRNA content was determined as described below.
For Lipofectamine2000™ transfections, 0.5 μl Lipofectamine2000™ were mixed with 12 μl OptiMem™ (Invitrogen, Karlsruhe, Germany, Cat. No. 11058-021) and incubated for 15 min. 1 μl of a 5 μM solution of the respective siRNA in PBS (Biochrom AG, Berlin, Germany, Cat-No: L182-05) were added to 11.5 μl OptiMeM™, mixed with the Lipofectamine2000™/OptiMem™ solution, and incubated for further 15 min. 1.5×10^5 HCT116-cells per well in 150 μl standard growth medium were grown for 24 h as described above, the growth medium removed from the cells by aspiration, and 75 μl fresh standard growth medium and the 25 μl of the siRNA/Lipofectamine2000™ mix were added to the well, to give a final siRNA concentration of 50 nM. The cells were incubated for 24 h at 37° C./5% CO2 and E6AP mRNA concentration determined.
The QuantiGene™ bDNA-kit from Panomics, Inc., Fremont, USA, was used according to manufacturer's instructions. Briefly, cells were lysed by adding 50 μl of Lysis Mixture (from QuantiGene bDNA-kit) to each well and incubation at 53° C. for 1 h. […]

In another data set the test system is cell viability. The data set can be described thus: CytoTox ONE cell viability assay. The following applies: 2.5 μM peptide. Type of data set: cell-based. The protocol: Delivery of siRNAs was tested in 7 different cell lines we obtained from the American Type Culture Collection, ATCC, via LCG Promochem GmbH, Wesel, Germany (PC12, ATTC# CRL-1721; HCT116, ATCC# CCL-247; C33A, ATCC# HTB-31; H441, ATCC# HTB-174; NMuLi, ATCC# CRL-1638; HepG2, ATCC# HB-8065; HeLa S3, ATCC# CCL2.2) and in the cell line KB-BCL2-GFP, as described in co-pending U.S. Ser. No. 10/941,663. Target mRNA quantification was performed using the QuantiGene™ bDNA-kit from Panomics, Inc., Fremont, USA, according to the manufacturers instructions, and essentially as described below for H441 cells. Genes constitutively expressed in the various cell lines were chosen as targets and results normalized to GAPDH expression. siRNA concentration was 250 nM, the concentration of the peptide was chosen as given by the molar ratio peptide/siRNA shown in Table 1. Cytotoxicity of peptides was evaluated employing the CytoTox-ONE™ assay (Promega GmbH, Mannheim, Germany).
Potential cytotoxic effects as mediator of inhibition were ruled out by determining cell viability in the presence of 2.5 μM of ppTG20, AP-0, AP-1, AP-27, AP-30, AP32 and AP-34 using the CytoTox ONE™ assay (Promega GmbH, Mannheim, Germany).

Another data set concerns eGFP-mRNA. The data set can be described thus: Influence of peptide/siRNA ratio on siRNA activity in HCT116 cells. The following applies: 250 nM siRNA. Type of data set: cell-based. As for the experimental part: The optimal ratio of (peptide):(anionic substance) for complex formation, was determined in section 3 above to lie in the range of 8:1 to 13:1 by titrating a fixed concentration of the anionic substance with increasing amounts of the peptide, and monitoring complex formation by electrophoresis of the mixture. To further validate and possibly narrow down the optimum ratio of peptide/anionic substance, an assay with a functional readout was performed. HCT116 cells were incubated with siRNA complexes as described above at concentrations such that the amount of siRNA in the incubation mixture corresponds to a 250 nM concentration of the siRNA, and the peptide/siRNA ratio was 8:1, 10:1, 12:1, or 14:1.

The mark [2] stands for this setting: siRNA AD-8724 250 nM, molar peptide/siRNA ratio 12.5:1.
Setting [3] is: AD-8724, siRNA/peptide conc. 25 nM/250 nM.
The mark [4] stands for this setting: AD-8724, siRNA/peptide conc. 250 nM/2.5 μM.
Where [5] appears, read: AD-8724, siRNA/peptide conc. 1 μM/10 μM.

Consider GAFRAAARLLRSLWRLLLRA [AP-23], for which the “remaining E6AP mRNA (in % of mock)” value in data set [1] (setting [2]) worked out at 82 ± 6%.

With RLFRALRRLLRRLWRLLRRA [AP-8], in data set [1] (setting [2]), the “remaining E6AP mRNA (in % of mock)” value was found to be 170 ± 44%.

GAFRAALRLLRSLWRLLLRA [AP-21]: the “remaining E6AP mRNA (in % of mock)” value in data set [1] (setting [2]) was found to be 53 ± 32%.

Consider RLFRALLRLLRSLWRLLLRAHHHHH [AP-27], for which, in the data set with cell viability, the cell viability result is “None of these peptides led to a significant alteration of cell viability”.

In the case of GLFRALARALRSLWRALARA [AP-25], the “remaining E6AP mRNA (in % of mock)” value in data set [1] (setting [2]) is recorded as 83 ± 5%.

As for HLFRALLRLLRHLWRLLHRA [AP-11], the “Remaining eGFP-mRNA in % of mock-transfected controls” value (“Remaining eGFP-mRNA in %” below) in the data set on eGFP-mRNA (peptide/siRNA ratio 8:1) is recorded as 27 ± 5%; in the data set on eGFP-mRNA (peptide/siRNA ratio 10:1) it was 30 ± 8%; in the data set with eGFP-mRNA (peptide/siRNA ratio 12:1), 30 ± 5%; in the data set with eGFP-mRNA (peptide/siRNA ratio 14:1) it was 24 ± 5%. The “remaining E6AP mRNA (in % of mock)” value in data set [1] (setting [2]) is 62 ± 15%.

As for GLFRALLRLLRRLWRLLLRA [AP-3], the “Remaining eGFP-mRNA in %” value was found to be 39 ± 10% in the data set with eGFP-mRNA (peptide/siRNA ratio 8:1), 32 ± 4% with eGFP-mRNA (peptide/siRNA ratio 10:1), 40 ± 5% in the data set on eGFP-mRNA (peptide/siRNA ratio 12:1) and 40 ± 8% with eGFP-mRNA (peptide/siRNA ratio 14:1). In addition, the “remaining E6AP mRNA (in % of mock)” value in data set [1] (setting [2]) is recorded as 43 ± 7%.

In the case of HHHHHRLFRALLRLLRSLWRLLLRAHHHHH [AP-32], the cell viability result in the data set with cell viability is listed as “None of these peptides led to a significant alteration of cell viability”.

HLFRHLLRLLRRLWHLLHRA [AP-14]: the “Remaining eGFP-mRNA in %” value in the data set with eGFP-mRNA (peptide/siRNA ratio 8:1) is given as 41 ± 2%; in the data set with eGFP-mRNA (peptide/siRNA ratio 10:1), 41 ± 12%; in the data set with eGFP-mRNA (peptide/siRNA ratio 12:1), 19 ± 2%; with eGFP-mRNA (peptide/siRNA ratio 14:1), 39 ± 7%. In data set [1] (setting [2]), the “remaining E6AP mRNA (in % of mock)” value was 56 ± 21%.

For RLFRALLRLLRSLWRLLRRAHHHHH [AP-28], the “remaining E6AP mRNA (in % of mock)” value in data set [1] (setting [3]) was 105 ± 13%; in data set [1] (setting [4]), 30 ± 9%; in data set [1] (setting [5]) it was 18 ± 2%.

For HLFRALHRLLRHLWRLLHRA [AP-12], the “remaining E6AP mRNA (in % of mock)” value in data set [1] (setting [2]) worked out at 94 ± 31%.

Turning to RLFRALLRLLRRLWRLLRRA [AP-7], the “remaining E6AP mRNA (in % of mock)” value in data set [1] (setting [2]) amounted to 134 ± 19%.

As to GLFRALLRLLRSLWRLLRRA [AP-2], the “Remaining eGFP-mRNA in %” value is reported as 54 ± 6% in the data set on eGFP-mRNA (peptide/siRNA ratio 8:1), 35 ± 15% in the data set on eGFP-mRNA (peptide/siRNA ratio 10:1), 32 ± 11% in the data set on eGFP-mRNA (peptide/siRNA ratio 12:1) and 36 ± 7% in the data set with eGFP-mRNA (peptide/siRNA ratio 14:1). In data set [1] (setting [2]), the “remaining E6AP mRNA (in % of mock)” value turned out to be 58 ± 7%.

“GLFRALLRLLRSLWRLLLRA [ppTG20, reference compound]”: the cell viability entry with cell viability is on record as “None of these peptides led to a significant alteration of cell viability”.

As to HLFRALLRLLRHLWRLLLRAHHHHH [AP-29], the “remaining E6AP mRNA (in % of mock)” value is listed as 58 ± 8% in data set [1] (setting [3]), 16 ± 2% in data set [1] (setting [4]) and 11 ± 1% in data set [1] (setting [5]).

On to HLFRALRRLLRHLWRLLRRA [AP-13], for which the “remaining E6AP mRNA (in % of mock)” value in data set [1] (setting [2]) amounted to 59 ± 7%.
